The text below walks through data of patent US11739101B2, “Bifunctional degraders of hematopoietic progenitor kinase and therapeutic uses thereof” (Nurix Therapeutics, Inc., priority 2020, dated 2023).

Bounds are passed on as bounds.

T1 sequence (Q92918 whole entry): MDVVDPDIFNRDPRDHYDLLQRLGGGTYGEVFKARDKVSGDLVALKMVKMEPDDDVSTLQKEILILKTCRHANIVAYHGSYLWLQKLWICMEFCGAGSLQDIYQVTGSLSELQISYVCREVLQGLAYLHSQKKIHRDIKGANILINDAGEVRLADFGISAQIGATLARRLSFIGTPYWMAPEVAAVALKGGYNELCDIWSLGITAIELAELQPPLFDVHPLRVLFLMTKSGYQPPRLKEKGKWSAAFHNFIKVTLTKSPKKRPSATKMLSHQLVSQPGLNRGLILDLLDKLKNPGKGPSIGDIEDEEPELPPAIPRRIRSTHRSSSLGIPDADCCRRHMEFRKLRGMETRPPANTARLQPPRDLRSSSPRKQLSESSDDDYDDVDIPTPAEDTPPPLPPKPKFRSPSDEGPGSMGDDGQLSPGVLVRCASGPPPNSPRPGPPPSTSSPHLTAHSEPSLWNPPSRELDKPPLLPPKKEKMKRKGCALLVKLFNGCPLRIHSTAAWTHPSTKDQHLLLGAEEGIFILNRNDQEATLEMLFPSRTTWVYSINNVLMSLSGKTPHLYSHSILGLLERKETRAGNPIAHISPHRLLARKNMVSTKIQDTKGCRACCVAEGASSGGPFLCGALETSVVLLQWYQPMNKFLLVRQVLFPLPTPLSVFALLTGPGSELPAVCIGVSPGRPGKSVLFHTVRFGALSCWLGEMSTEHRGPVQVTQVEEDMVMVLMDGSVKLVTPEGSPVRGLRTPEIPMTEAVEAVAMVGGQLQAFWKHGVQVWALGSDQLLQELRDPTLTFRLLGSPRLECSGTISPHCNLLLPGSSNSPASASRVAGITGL

The experiment concerns the target T1, HPK1 (Homo sapiens, UniProt Q92918).
T1 construct: A HiBiT tag was introduced by CRISPR on the N terminus of HPK1 in Jurkat cells; host or cells: Jurkat (ATCC TIB-152), monoclonal CRISPR HiBiT knock-in line
As to the kind of experiment: HPK1 Cellular HiBiT Degradation Assay. The format is cell-based. The conditions noted are these: HiBiT-tagged HPK1 Jurkat cells, 24 hours, 10 uM to 0.1 nM; Dmax = 100 minus lowest % HPK1 remaining vs DMSO vehicle. The procedure, abridged: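 Dmax is derived from four-parameter curves of % HPK1 remaining, as 100 minus the lowest value, normalized to DMSO-treated cells with parental Jurkat background subtracted. HiBiT-HPK1 knock-in Jurkat cells got compound for 24 hours (final 10 uM to 0.1 nM, 11 points) before lytic HiBiT luminescence. Cytotoxicity was checked on parallel CellTiter-Glo plates.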
In general terms: The HiBiT peptide binds its large partner to form an active luciferase.
Broadly, the Dmax is the largest share of the target that was removed. Low readings indicate a partial loss of target, high ones a fuller loss of target. As to `Cc1cc(F)c(Nc2nc(-c3ccc4c(c3)N([C@H]3C[C@@H](N5CCCCC5)C3)C(=O)C43CCN(C(=O)[C@@H]4CCN(C(=O)N5CCC(Nc6cccc7c6C(=O)N(C6CCC(=O)NC6=O)C7=O)CC5)C4)CC3)cc3ncn(C(C)C)c23)cc1C(=O)NC(C)C` (stereo partly drawn) [Example 69, 5-[(6-{1′-[(3R)-1-[4-({2-[2,6-dioxopiperidin-3-yl]-1,3-dioxo-2,3-dihydro-1H-isoindol-4-yl}amino)piperidine-1-carbonyl]pyrrolidine-3-carbonyl]-2-oxo-1-[(1S,3s)-3-(piperidin-1-yl)cyclobutyl]-1,2-dihydrospiro[indole-3,4′-piperidin]-6-yl}-3-(propan-2-yl)-3H-imidazo[4,5-c]pyridin-4-yl)amino]-4-fluoro-2-methyl-N-(propan-2-yl)benzamide], the maximal degradation (Dmax) lay in the range of 45 to 65%.

In turn, `Cc1cc(F)c(Nc2nc(-c3ccc4c(c3)N([C@H]3C[C@@H](N5CCCCC5)C3)C(=O)C43CCN(C(=O)c4ccc(C(=O)N5CCC(c6cccc7c6C(=O)N([C@H]6CCC(=O)NC6=O)C7=O)CC5)cc4)CC3)cc3ncn(C(C)C)c23)cc1C(=O)NC(C)C` [Example 75, 5-[(6-{1′-[4-(4-{2-[2,6-dioxopiperidin-3-yl]-1,3-dioxo-2,3-dihydro-1H-isoindol-4-yl}piperidine-1-carbonyl)benzoyl]-2-oxo-1-[(1s,3s)-3-(piperidin-1-yl)cyclobutyl]-1,2-dihydrospiro[indole-3,4′-piperidin]-6-yl}-3-(propan-2-yl)-3H-imidazo[4,5-c]pyridin-4-yl)amino]-4-fluoro-2-methyl-N-(propan-2-yl)benzamide] gave a Dmax of less than 45%.

Take `CC(=O)N1CCC2(CC1)C(=O)N([C@H]1C[C@@H](N3CCC[C@@H](C(=O)NCCCCCCCOc4cc(-c5scnc5C)ccc4CNC(=O)[C@@H]4C[C@@H](O)CN4C(=O)[C@@H](NC(=O)C4(F)CC4)C(C)(C)C)C3)C1)c1cc(-c3cc4ncn(C(C)C)c4c(Nc4cc(C(=O)NC(C)C)c(C)cc4F)n3)ccc12` [Example 16, (R)-1-((1s,3s)-3-(1′-acetyl-6-(4-((2-fluoro-5-(isopropylcarbamoyl)-4-methylphenyl)amino)-3-isopropyl-3H-imidazo[4,5-c]pyridin-6-yl)-2-oxospiro[indoline-3,4′-piperidin]-1-yl)cyclobutyl)-N-(7-(2-(((2S,4R)-1-((S)-2-(1-fluorocyclopropane-1-carboxamido)-3,3-dimethylbutanoyl)-4-hydroxypyrrolidine-2-carboxamido)methyl)-5-(4-methylthiazol-5-yl)phenoxy)heptyl)piperidine-3-carboxamide]: the Dmax was less than 45%.

`Cc1cc(F)c(Nc2nc(-c3ccc4c(c3)N([C@H]3C[C@@H](N5CCCCC5)C3)C(=O)C43CCN(C(=O)[C@H]4CC[C@@H](C(=O)N5CCN(c6ccc7c(c6)C(=O)N(C6CCC(=O)NC6=O)C7=O)CC5)CC4)CC3)cc3ncn(C(C)C)c23)cc1C(=O)NC(C)C` (stereo partly drawn) [Example 79, 5-((6-(1′-((1s,4S)-4-(4-(2-(2,6-dioxopiperidin-3-yl)-1,3-dioxoisoindolin-5-yl)piperazine-1-carbonyl)cyclohexane-1-carbonyl)-2-oxo-1-((1s,3s)-3-(piperidin-1-yl)cyclobutyl)spiro[indoline-3,4′-piperidin]-6-yl)-3-isopropyl-3H-imidazo[4,5-c]pyridin-4-yl)amino)-4-fluoro-N-isopropyl-2-methylbenzamide] had a Dmax of 45 to 65%.

Regarding `Cc1cc(F)c(Nc2nc(-c3ccc4c(c3)N([C@H]3C[C@@H](N5CCCCC5)C3)C(=O)C43CCN(C(=O)c4ccc(CC5CCN(c6cccc7c6C(=O)N(C6CCC(=O)NC6=O)C7=O)CC5)cc4)CC3)cc3ncn(C(C)C)c23)cc1C(=O)NC(C)C` (stereo partly drawn) [Example 59, 5-[(6-{1′-[4-({1-[2-(2,6-dioxopiperidin-3-yl)-1,3-dioxo-2,3-dihydro-1H-isoindol-4-yl]piperidin-4-yl}Methyl)benzoyl]-2-oxo-1-[(1s,3s)-3-(piperidin-1-yl)cyclobutyl]-1,2-dihydrospiro[indole-3,4′-piperidin]-6-yl}-3-(propan-2-yl)-3H-imidazo[4,5-c]pyridin-4-yl)amino]-4-fluoro-2-methyl-N-(propan-2-yl)benzamide], the Dmax lay within 45 to 65%.

In the case of `Cc1cc(F)c(Nc2nc(-c3ccc4c(c3)N([C@H]3C[C@@H](N5CCCCC5)C3)C(=O)C43CCN(C(=O)c4ccc(C(=O)N5CCN(c6ccc7c(c6)C(=O)N(C6CCC(=O)NC6=O)C7=O)CC5C)cc4)CC3)cc3ncn(C(C)C)c23)cc1C(=O)NC(C)C` (stereo partly drawn) [Example 72, 5-[(6-{1′-[4-(4-{2-[2,6-dioxopiperidin-3-yl]-1,3-dioxo-2,3-dihydro-1H-isoindol-5-yl}-2-methylpiperazine-1-carbonyl)benzoyl]-2-oxo-1-[(1s,3s)-3-(piperidin-1-yl)cyclobutyl]-1,2-dihydrospiro[indole-3,4′-piperidin]-6-yl}-3-(propan-2-yl)-3H-imidazo[4,5-c]pyridin-4-yl)amino]-4-fluoro-2-methyl-N-(propan-2-yl)benzamide], the greatest degradation seen (Dmax) is greater than 65%.

In turn, `Cc1cc(F)c(Nc2nc(-c3ccc4c(c3)N([C@H]3C[C@@H](N5CCCCC5)C3)C(=O)C43CCN(C(=O)CN4CCC5(CC4)CC(C(=O)NCCNc4cccc6c4C(=O)N(C4CCC(=O)NC4=O)C6=O)C5)CC3)cc3ncn(C(C)C)c23)cc1C(=O)NC(C)C` (stereo partly drawn) [Example 46, N-(2-((2-(2,6-dioxopiperidin-3-yl)-1,3-dioxoisoindolin-4-yl)amino)ethyl)-7-(2-(6-(4-((2-fluoro-5-(isopropylcarbamoyl)-4-methylphenyl)amino)-3-isopropyl-3H-imidazo[4,5-c]pyridin-6-yl)-2-oxo-1-((1s,3s)-3-(piperidin-1-yl)cyclobutyl)spiro[indoline-3,4′-piperidin]-1′-yl)-2-oxoethyl)-7-azaspiro[3.5]nonane-2-carboxamide] came in with a Dmax of 45 to 65%.

`Cc1cc(F)c(Nc2nc(-c3ccc4c(c3)N([C@H]3C[C@@H](N5CCCCC5)C3)C(=O)C43CCN(C(=O)CCOCCOCCOCCOCCOCCNc4cccc5c4C(=O)N(C4CCC(=O)NC4=O)C5=O)CC3)cc3ncn(C(C)C)c23)cc1C(=O)NC(C)C` (stereo partly drawn) [Example 12, 5-((6-(1′-(1-((2-(2,6-dioxopiperidin-3-yl)-1,3-dioxoisoindolin-4-yl)amino)-3,6,9,12,15-pentaoxaoctadecan-18-oyl)-2-oxo-1-((1s,3s)-3-(piperidin-1-yl)cyclobutyl)spiro[indoline-3,4′-piperidin]-6-yl)-3-isopropyl-3H-imidazo[4,5-c]pyridin-4-yl)amino)-4-fluoro-N-isopropyl-2-methylbenzamide] displayed a maximal degradation (Dmax) of 45 to 65%.

In turn, `Cc1cc(F)c(Nc2nc(-c3ccc4c(c3)N([C@H]3C[C@@H](N5CCCCC5)C3)C(=O)C43CCN(CCOCCOCCOCCOCCOCCOCCOCCNc4cccc5c4C(=O)N(C4CCC(=O)NC4=O)C5=O)CC3)cc3ncn(C(C)C)c23)cc1C(=O)NC(C)C` (stereo partly drawn) [Example 43, 5-[(6-{1′-[23-({2-[2,6-dioxopiperidin-3-yl]-1,3-dioxo-2,3-dihydro-1H-isoindol-4-yl}amino)-3,6,9,12,15,18,21-heptaoxatricosan-1-yl]-2-oxo-1-[(1s,3s)-3-(piperidin-1-yl)cyclobutyl]-1,2-dihydrospiro[indole-3,4′-piperidin]-6-yl}-3-(propan-2-yl)-3H-imidazo[4,5-c]pyridin-4-yl)amino]-4-fluoro-2-methyl-N-(propan-2-yl)benzamide] showed a Dmax greater than 65%.

`Cc1cc(F)c(Nc2nc(-c3ccc4c(c3)N([C@H]3C[C@@H](N5CCCCC5)C3)C(=O)C43CCN(C(=O)[C@H]4CC[C@@H](C(=O)N5CCC(N(C)c6cccc7c6C(=O)N(C6CCC(=O)NC6=O)C7=O)CC5)CC4)CC3)cc3ncn(C(C)C)c23)cc1C(=O)NC(C)C` (stereo partly drawn) [Example 62, 4-fluoro-2-methyl-5-[(6-{2-oxo-1-[(1s,3s)-3-(piperidin-1-yl)cyclobutyl]-1′-[(1S,4s)-4-(4-{[2-(2,6-dioxopiperidin-3-yl)-1,3-dioxo-2,3-dihydro-1H-isoindol-4-yl](methyl)amino}piperidine-1-carbonyl)cyclohexanecarbonyl]-1,2-dihydrospiro[indole-3,4′-piperidin]-6-yl}-3-(propan-2-yl)-3H-imidazo[4,5-c]pyridin-4-yl)amino]-N-(propan-2-yl)benzamide] showed a Dmax of 45 to 65%.

Compound `Cc1cc(F)c(Nc2nc(-c3ccc4c(c3)N([C@H]3C[C@@H](N5CCCCC5)C3)C(=O)C43CCN(C(=O)C4(C)CCN(C(=O)C5CCN(c6ccc7c(c6)C(=O)N(C6CCC(=O)NC6=O)C7=O)CC5)CC4)CC3)cc3ncn(C(C)C)c23)cc1C(=O)NC(C)C` (stereo partly drawn) [Example 74, 5-[(6-{1′-[1-(1-{2-[2,6-dioxopiperidin-3-yl]-1,3-dioxoisoindol-5-yl}piperidine-4-carbonyl)-4-methylpiperidine-4-carbonyl]-2-oxo-1-[(1s,3s)-3-(piperidin-1-yl)cyclobutyl]spiro[indole-3,4′-piperidin]-6-yl}-3-isopropylimidazo[4,5-c]pyridin-4-yl)amino]-4-fluoro-N-isopropyl-2-methylbenzamide] yielded a Dmax of 45 to 65%.

The compound `Cc1cc(F)c(Nc2nc(-c3ccc4c(c3)N([C@H]3C[C@@H](N5CCCCC5)C3)C(=O)C43CCN(C(=O)c4ccc(N5CCN(c6ccc7c(c6)C(=O)N(C6CCC(=O)NC6=O)C7=O)CC5)nc4)CC3)cc3ncn(C(C)C)c23)cc1C(=O)NC(C)C` (stereo partly drawn) [Example 85, 5-((6-(1′-(6-(4-(2-(2,6-dioxopiperidin-3-yl)-1,3-dioxoisoindolin-5-yl)piperazin-1-yl)nicotinoyl)-2-oxo-1-((1s,3s)-3-(piperidin-1-yl)cyclobutyl)spiro[indoline-3,4′-piperidin]-6-yl)-3-isopropyl-3H-imidazo[4,5-c]pyridin-4-yl)amino)-4-fluoro-N-isopropyl-2-methylbenzamide] returned a Dmax of less than 45%.
